Literature values, collected in patent US9493497B2, “Carbamate glycolipid and use thereof” (RIKEN, priority 2012, dated 2016).

Columns and labels:
[1] = not given; remark: listed apart in the source

CCCCCCCCCCCCCCCCCCCCCCCCCC(=O)N[C@@H](CO[C@H]1OC(CO)[C@H](O)C(O)C1O)[C@H](O)[C@H](O)CCCCCCCCCCCCCC (stereo partly shown) [KRN7000]
anti-tumor activity (tumor): extremely strong anti-tumor activity

CCCCCCCC/C=C\CCCCCCCCCCCCCC(=O)N[C@@H](CO[C@H]1OC(CNC(C)=O)[C@H](O)[C@H](O)C1O)[C@H](O)[C@H](O)CCCCCCCCCCCCCC (stereo partly shown) [PBS-57]
solubility in DMSO: improved solubility in DMSO

CCCCCCCCCCCCCCCCCCCCCCCCCC(=O)N[C@@H](CO[C@H]1CC(CO)[C@H](O)[C@H](O)C1O)[C@H](O)[C@H](O)CCCCCCCCCCCCCC (stereo partly shown) [RCAI-56]
NKT cell activation / IFN-γ production induction (NKT cells): strongly activates NKT cells and induces production of a large amount of IFN-γ

CCCCCCCCCCCCCCCCCCCCCCCCCC(=O)N[C@@H](CO[C@H]1O[C@H](COC)[C@H](O)[C@H](O)[C@H]1O)[C@H](O)[C@H](O)CCCCCCCCCCCCCC [RCAI-61]
NKT cell activation / IFN-γ production induction (NKT cells): induces production of IFN-γ in large amounts | solubility in water [1]: low solubility in water

CCCCCCCCCCCCCCCCCCCCCCCCCC(=O)N[C@@H](CC[C@H]1OC(CO)[C@H](O)C(O)C1O)[C@H](O)[C@H](O)CCCCCCCCCCCCCC (stereo partly drawn) [α-C-GalCer]
activation of NKT cells of mouse (NKT cells of mouse): strongly activates NKT cells of mouse and preferentially produces IFN-γ | cytokine production in human NKT cells (human NKT cells): scarcely induces cytokine production
